According to patent US9365604B2, “Oligomer-nucleoside phosphate conjugates” (NEKTAR THERAPEUTICS, priority 2007, dated 2016):
Where two headings read alike, the source gives them in different places.

How the values were obtained:
[1] = system: DU145; test: Sulforhodamine B (SRB) growth inhibition assay; format: cell-based, Human; details: SRB assay
Experimental: (§1) The aim was to determine the GI50 values for PEG-floxuridine conjugates against a panel of cell lines, and based on previous data from Xenograft studies. […] The test articles were solubilized in dimethylsulfoxide and were tested at four different molar (M) concentrations; 10^−4, 10^−5, 10^−6, M. GI50 (the concentration needed to reduce the growth of treated cells to half that of untreated control cells) was calculated for each condition ([(Ti−Tz)/(C-Tz)]×100=50, where Ti, Tz, and C refer to absorbance values obtained from each tested concentration, time zero, and control treatment, respectively).
as §1, with “The objective” for “The aim”, “the IC50” for “the GI50”, “for PEG-gemcitabine” for “for PEG-floxuridine”, “in dimethyl sulfoxide” for “in dimethylsulfoxide”, “10^−6, 10^−7” for “10^−6,”, “condition ([(Ti−Tz)/(C−Tz)]×100=50,” for “condition ([(Ti−Tz)/(C-Tz)]×100=50,”

[2] = system: A2780; test: Sulforhodamine B (SRB) growth inhibition assay; format: cell-based, Human; details: for ratio vs gem (GI50) A2780: GI50 of conjugate vs gemcitabine; for GI50: SRB assay
Experimental: (§2) In Vitro Screening of PEG-Gemcitabine Monophosphate in Selected Human Cancer Cell Lines
as §1
as §1, with “The objective” for “The aim”, “the IC50” for “the GI50”, “for PEG-gemcitabine” for “for PEG-floxuridine”, “in dimethyl sulfoxide” for “in dimethylsulfoxide”, “10^−6, 10^−7” for “10^−6,”, “condition ([(Ti−Tz)/(C−Tz)]×100=50,” for “condition ([(Ti−Tz)/(C-Tz)]×100=50,”

[3] = system: COLO205; test: Sulforhodamine B (SRB) growth inhibition assay; format: cell-based, Human; details: for GI50: COLO205, SRB assay; for ratio vs gem (GI50) COLO-205: GI50 of conjugate vs gemcitabine
Experimental: as §2, §1
as §1, with “The objective” for “The aim”, “the IC50” for “the GI50”, “for PEG-gemcitabine” for “for PEG-floxuridine”, “in dimethyl sulfoxide” for “in dimethylsulfoxide”, “10^−6, 10^−7” for “10^−6,”, “condition ([(Ti−Tz)/(C−Tz)]×100=50,” for “condition ([(Ti−Tz)/(C-Tz)]×100=50,”

[4] = system: HCT15; test: Sulforhodamine B (SRB) growth inhibition assay; format: cell-based, Human; details: for ratio vs gem (GI50) HCT15: GI50 of conjugate vs gemcitabine; for GI50: SRB assay
Experimental: as §2, §1
as §1, with “The objective” for “The aim”, “the IC50” for “the GI50”, “for PEG-gemcitabine” for “for PEG-floxuridine”, “in dimethyl sulfoxide” for “in dimethylsulfoxide”, “10^−6, 10^−7” for “10^−6,”, “condition ([(Ti−Tz)/(C−Tz)]×100=50,” for “condition ([(Ti−Tz)/(C-Tz)]×100=50,”

[5] = system: HT29; test: Sulforhodamine B (SRB) growth inhibition assay; format: cell-based, Human; details: for ratio vs gem (GI50) HT29: GI50 of conjugate vs gemcitabine; for GI50: SRB assay
Experimental: as §2, §1
as §1, with “The objective” for “The aim”, “the IC50” for “the GI50”, “for PEG-gemcitabine” for “for PEG-floxuridine”, “in dimethyl sulfoxide” for “in dimethylsulfoxide”, “10^−6, 10^−7” for “10^−6,”, “condition ([(Ti−Tz)/(C−Tz)]×100=50,” for “condition ([(Ti−Tz)/(C-Tz)]×100=50,”

[6] = system: Hop62; test: Sulforhodamine B (SRB) growth inhibition assay; format: cell-based, Human; details: for ratio vs gem (GI50) Hop62: GI50 of conjugate vs gemcitabine; for GI50: SRB assay
Experimental: as §2, §1
as §1, with “The objective” for “The aim”, “the IC50” for “the GI50”, “for PEG-gemcitabine” for “for PEG-floxuridine”, “in dimethyl sulfoxide” for “in dimethylsulfoxide”, “10^−6, 10^−7” for “10^−6,”, “condition ([(Ti−Tz)/(C−Tz)]×100=50,” for “condition ([(Ti−Tz)/(C-Tz)]×100=50,”

[7] = system: MCF7; test: Sulforhodamine B (SRB) growth inhibition assay; format: cell-based, Human; details: for ratio vs gem (GI50) MCF7: GI50 of conjugate vs gemcitabine; for GI50: SRB assay
Experimental: as §2, §1
as §1, with “The objective” for “The aim”, “the IC50” for “the GI50”, “for PEG-gemcitabine” for “for PEG-floxuridine”, “in dimethyl sulfoxide” for “in dimethylsulfoxide”, “10^−6, 10^−7” for “10^−6,”, “condition ([(Ti−Tz)/(C−Tz)]×100=50,” for “condition ([(Ti−Tz)/(C-Tz)]×100=50,”

[8] = system: NCI/ADR-RES; test: Sulforhodamine B (SRB) growth inhibition assay; format: cell-based, Human
Experimental: as §2
(§3) The aim was to determine the GI50 values for PEG-floxuridine conjugates against a panel of cell lines, and based on previous data from Xenograft studies. The cells were exposed for 24 h, and cell viability assessed by using the Sulphorhodamine (SRB) assay. The test articles were solubilized in dimethylsulfoxide and were tested at four different molar (M) concentrations; 10^−4, 10^−5, 10^−6, M. GI50 (the concentration needed to reduce the growth of treated cells to half that of untreated control cells) was calculated for each condition ([(Ti−Tz)/(C-Tz)]×100=50, where Ti, Tz, and C refer to absorbance values obtained from each tested concentration, time zero, and control treatment, respectively).
as §3, with “The objective” for “The aim”, “the IC50” for “the GI50”, “for PEG-gemcitabine” for “for PEG-floxuridine”, “in dimethyl sulfoxide” for “in dimethylsulfoxide”, “10^−6, 10^−7” for “10^−6,”, “condition ([(Ti−Tz)/(C−Tz)]×100=50,” for “condition ([(Ti−Tz)/(C-Tz)]×100=50,”

[9] = system: HCT-116; test: In vitro cytotoxicity assay (CellTiter-Glo); format: cell-based; details: for IC50: 72 h exposure, CellTiter-Glo
Experimental: (§4) The objective of these studies were to determine the IC50 values for PEG-floxuridine conjugates against floxuridine-resistant cell lines based on data from previous Xenograft studies. The cells were exposed for 72 h, and cell viability assessed by using the CellTiter-Glo assay.
(§5) The objective of these studies was to determine the IC50 values for PEG-gemcitabine conjugates against gemcitabine-resistant cell lines based on data from previous Xenograft studies. The cells were exposed for 72 h, and cell viability assessed by using the CellTiter-Glo assay.

[10] = system: HT-29; test: In vitro cytotoxicity assay (CellTiter-Glo); format: cell-based; details: for IC50: 72 h exposure, CellTiter-Glo
Experimental: as §4, §5

[11] = system: MIA PaCa-2; test: In vitro cytotoxicity assay (CellTiter-Glo); format: cell-based; details: for IC50: 72 h exposure, CellTiter-Glo
Experimental: as §4, §5

[12] = system: CAKI-1; test: In vitro cytotoxicity assay (CellTiter-Glo); format: cell-based; details: for IC50: 72 h exposure, CellTiter-Glo
[13] = system: HL-60; test: In vitro cytotoxicity assay (CellTiter-Glo); format: cell-based; details: for IC50: 72 h exposure, CellTiter-Glo
Experimental: as §5

[14] = system: RL; test: In vitro cytotoxicity assay (CellTiter-Glo); format: cell-based; details: for IC50: 72 h exposure, CellTiter-Glo
Experimental: as §5

[15] = system: PANC-1; test: In vitro cytotoxicity assay (CellTiter-Glo); format: cell-based; details: 72 h exposure
Experimental: as §5
The PEG-gemcitabine derivatives and gemcitabine inhibited the growth of most of the cell lines with IC50 values from the nM to low μM range, except for PANC-1 cells. Like the previous study, some of the IC50 values should be interpreted carefully because the concentration range tested was not centered around the IC50. […] The PANC-1 pancreatic cell line, in contrast to BxPC-3, Capan-1, or MIA-PaCa-2, has been shown previously to be resistant in vitro to gemcitabine, and 4′-thio-FAC, a deoxycytidine sulfur- and fluoro-substituted analog (Zajchowski et al., (2005). Int J Cancer. 114(6), 1002-9).

[16] = system: MDCK cells; test: Bi-directional permeability in MDCK cells
Source text: (§6) Bi-Directional Permeability of PEG-Floxuridine Conjugates in Caco-2 and MDCK Cells

[17] = system: Caco-2 cells; test: Bi-directional permeability in Caco-2 cells
Source text: as §6

[18] = 48 h drug exposure, read-out: GI50 (molar concentration) in Cell Line DU145
[19] = cells exposed for 24 h, read-out: GI50 values (μM) DU145
[20] = 48 h drug exposure, read-out: GI50 (molar concentration) in Cell Line A2780
[21] = cells exposed for 24 h, read-out: GI50 values (μM) A2780
[22] = 48 h drug exposure, read-out: GI50 (molar concentration) in Cell Line COLO205
[23] = cells exposed for 24 h, read-out: GI50 values (μM) COLO205
[24] = 48 h drug exposure, read-out: GI50 (molar concentration) in Cell Line HCT15
[25] = cells exposed for 24 h, read-out: GI50 values (μM) HCT15
[26] = 48 h drug exposure, read-out: GI50 (molar concentration) in Cell Line HT29
[27] = cells exposed for 24 h, read-out: GI50 values (μM) HT29
[28] = 48 h drug exposure, read-out: GI50 (molar concentration) in Cell Line Hop62
[29] = cells exposed for 24 h, read-out: GI50 values (μM) Hop62
[30] = 48 h drug exposure, read-out: GI50 (molar concentration) in Cell Line MCF7
[31] = cells exposed for 24 h, read-out: GI50 values (μM) MCF7
[32] = cells exposed for 24 h, read-out: GI50 values (μM) NCI/ADR-RES

SMILES: COCCOCCOCCOP(=O)(O)OC[C@H]1O[C@@H](n2ccc(N)nc2=O)C(F)(F)[C@@H]1O.Cl [Gemcitabine Mono (mPEG3), 5′-gemcitabine methoxy tri(ethylene glycol) phosphate hydrochloride]
- GI50 [1, 18]: < 0.1 µM
- GI50 [1, 19]: < 0.1 µM
- ratio vs gem (GI50) A2780 [2]: 2
- GI50 [2, 20]: 0.15 µM
- GI50 [2, 21]: 0.15 µM
- GI50 [3, 22]: 0.16 µM
- GI50 [3, 23]: 0.16 µM
- ratio vs gem (GI50) COLO-205 [3]: 1
- ratio vs gem (GI50) HCT15 [4]: 14
- GI50 [4, 24]: 2.2 µM
- GI50 [4, 25]: 2.2 µM
- ratio vs gem (GI50) HT29 [5]: 13
- GI50 [5, 26]: 28 µM
- GI50 [5, 27]: 28 µM
- ratio vs gem (GI50) Hop62 [6]: 1
- GI50 [6, 28]: 2.6 µM
- GI50 [6, 29]: 2.6 µM
- ratio vs gem (GI50) MCF7 [7]: 2
- GI50 [7, 30]: 0.16 µM
- GI50 [7, 31]: 0.158 µM
- GI50 [8, 32]: 1.7 µM
- Ratio vs gem (IC50) HCT-116 [9]: 2
- IC50 [9]: 2.9 nM
- Ratio vs gem (IC50) HT-29 [10]: 7
- IC50 [10]: 755 nM
- Ratio vs gem (IC50) MIA PaCa-2 [11]: 3
- IC50 [11]: 76 nM
- Ratio vs gem (IC50) CAKI-1 [12]: 3
- IC50 [12]: 21 nM
- Ratio vs gem (IC50) HL-60 [13]: 1
- IC50 [13]: 2 nM
- Ratio vs gem (IC50) RL [14]: 2
- IC50 [14]: 568 nM
- IC50 [15]: > 1e+06 nM
- Papp A -> B [16]: <0.06 10^−6 cm/s
- Papp B -> A [16]: <0.08 10^−6 cm/s
- Significant efflux [16]: No
- percent recovery A -> B [16]: 91%
- percent recovery B -> A [16]: 96%
- Papp A -> B [17]: <0.06 10^−6 cm/s
- Papp B -> A [17]: <0.08 10^−6 cm/s
- Significant efflux [17]: No
- percent recovery A -> B [17]: 78%
- percent recovery B -> A [17]: 90%

SMILES: COCCOCCOCCOCCOCCOCCOCCOP(=O)(O)OC[C@H]1O[C@@H](n2ccc(N)nc2=O)C(F)(F)[C@@H]1O.Cl [Gemcitabine Mono (mPEG7), 5′-gemcitabine methoxy hepta(ethylene glycol) phosphate hydrochloride]
- GI50 [1, 18]: < 0.1 µM
- GI50 [1, 19]: < 0.1 µM
- ratio vs gem (GI50) A2780 [2]: 2
- GI50 [2, 20]: 0.15 µM
- GI50 [2, 21]: 0.15 µM
- GI50 [3, 22]: 0.18 µM
- GI50 [3, 23]: 0.18 µM
- ratio vs gem (GI50) COLO-205 [3]: 1
- ratio vs gem (GI50) HCT15 [4]: 14
- GI50 [4, 24]: 2.3 µM
- GI50 [4, 25]: 2.3 µM
- ratio vs gem (GI50) HT29 [5]: 15
- GI50 [5, 26]: 32 µM
- GI50 [5, 27]: 32 µM
- ratio vs gem (GI50) Hop62 [6]: 1
- GI50 [6, 28]: 2.4 µM
- GI50 [6, 29]: 2.4 µM
- ratio vs gem (GI50) MCF7 [7]: 2
- GI50 [7, 30]: 0.16 µM
- GI50 [7, 31]: 0.16 µM
- GI50 ([8]; 48 h drug exposure, read-out: GI50 (molar concentration) in Cell Line NCI/ADR-RES): 2 µM
- GI50 [8, 32]: 2 µM
- Ratio vs gem (IC50) HCT-116 [9]: 2
- IC50 [9]: 4 nM
- Ratio vs gem (IC50) HT-29 [10]: 56
- IC50 [10]: 6250 nM
- Ratio vs gem (IC50) MIA PaCa-2 [11]: 3
- IC50 [11]: 84 nM
- Ratio vs gem (IC50) CAKI-1 [12]: 6
- IC50 [12]: 50 nM
- Ratio vs gem (IC50) HL-60 [13]: 2
- IC50 [13]: 2.6 nM
- Ratio vs gem (IC50) RL [14]: 1
- IC50 [14]: 259 nM
- IC50 [15]: > 1e+06 nM
- Papp A -> B [16]: <0.06 10^−6 cm/s
- Papp B -> A [16]: <0.08 10^−6 cm/s
- Significant efflux [16]: No
- percent recovery A -> B [16]: 94%
- percent recovery B -> A [16]: 96%
- Papp A -> B [17]: <0.06 10^−6 cm/s
- Papp B -> A [17]: <0.08 10^−6 cm/s
- Significant efflux [17]: No
- percent recovery A -> B [17]: 74%
- percent recovery B -> A [17]: 86%
